Data set [1] deals with HEK293T cells. Briefly: Cell proliferation assay (WST-1), cellular toxicity of adjuvants. The data set is classed as cell-based, human. On the procedure:
In 6-well plates, triplicates of 2×10^5 cells per well were seeded and treated with defined adjuvant concentrations ranging from 1 μg/ml to 1000 μg/ml. After 24 hours incubation (at 37° C. with 5% C02) the medium was exchanged with fresh medium and cells were incubated for additional 48 hours. Cell proliferation was determined with the WST-1 colorimetric cell proliferation assay (Roche), according to manufacturer's instructions. Shortly, cells were trypsinized following 100 μl cell incubation with 10 μl WST-1 substrate (at 37° C. with 5% C02) for 2 hours. The assay was performed in 96-well microtiter plates and absorbance was determined at 490 nm using a TECAN-Infinite microplate reader (TECAN).
From potential adjuvant substances for lentiviral gene delivery we selected five representatives from the class of polycation-like and seven from the class of poloxamer-like chemical substances (Tab. 1). HEK293T cells were co-incubated with defined substance concentration for 24 hours, than medium was changed and cells were incubated for additional 48 hours prior measurements of cell proliferation. To test specific HEK293T growth inhibition by different substances we measured incorporation of WST1 substrate and correlated to control cell population without any substance co-incubation (FIG. 1). […]

The subject of data set [2] is HEK293T cells. Briefly: Adjuvant-assisted lentiviral (GFP) gene transfer into HEK293T cells, flow cytometry. The data set is classed as cell-based, human.
Procedure: HEK293T cells (2×10^5 cells per well) were covered with 1 ml medium containing lentivirus (GP) with or without adjuvants. […] In given case, plates were centrifuged at 1,000 g for 60 min. After 24 hours incubation (at 37° C. with 5% CO2) the supernatant was exchanged with fresh medium and incubated for additional 48 hours. Combined microscopic analysis and documentation was done after 48 hours post infection (HBO 50/AC and AxioCam MRC, Carl Zeiss AG). […] Plates were centrifuged at 800 g for 90 min.
After lentiviral transduction, cells were washed in PBS and resuspended in PBS with 1 μg/mi propidium iodide (Invitrogen). After 10 min incubation on ice, 30,000 events were analyzed for forward/sideward scatter characteristics, green fluorescence light emission at 530 nm and red fluorescence light emission at 610 nm in FACSDiva (BD Biosciences).
HEK293T cells were covered (for 24 hours) with a mixture of LV with specified adjuvant in a maximum tolerable concentration (1000 μg/ml). LV carrying a CopGFP-coding transgene were applied in decreasing MOI from 2.5 to 0.0025. After medium change, cells were cultivated for another 48 hours and measured for green fluorescent light emission by flow cytometry.
HEK293T cells were covered (for 24 hours) with a mixture of LV as used in example 3 with specified adjuvant up to a maximum applied concentration of 5000 μg/ml Synperonic F108. […]

As to `CCCCCCCC/C=C\CCCCCCCC(=O)OC[C@H](COP(=O)(O)OCCN)OC(=O)CCCCCCC/C=C\CCCCCCCC` [PEA, L-α-Phosphatidyl-ethanolamine-dioleoyl], in the data set on HEK293T cells [1] (1000 μg/ml, FIG. 1), the “cell proliferation / cellular viability” value is listed as “remained non-toxic”. For the same molecule, in the data set on HEK293T cells [2] (MOI 2.5, polybrene 10 μg/ml, others 1000 μg/ml, FIG. 2), the “transduction efficiency (in words)” value was “low transduction rates”. In the data set with HEK293T cells [2] (polybrene 10 μg/ml, others 1000 μg/ml and above), the “transduction/infection compared with polybrene-assisted LV infection (in words)” value was “failed to further increase this transduction level”.

Turning to `CC(C)CCC[C@@H](C)[C@H]1CC[C@H]2[C@@H]3CC=C4C[C@@H](OC(=O)NCCN(C)C)CC[C@]4(C)[C@H]3CC[C@]12C.Cl` [Cholesterylcarbamate, Cholesteryl-3β-N-(dimethyl-amino-ethyl)-carbamate-hydrochloride], in the data set with HEK293T cells [1] (increasing concentrations above 10 μg/ml, FIG. 1a), the “cell proliferation / toxicity” value is “massive reduction in cell proliferation”.

The values above are taken from US12385066B2, “Retroviral transduction using poloxamers” (HELMHOLTZ ZENTRUM MUNCHEN—DEUTSCHES FORSCHU[…] GESUNDHEIT …, priority 2012, dated 2025).
